Measured values reported in patent US5767253A, “A83543 Compounds; factors Q, R, S, and T” (priority 1995, dated 1998).
Values after ≈ are worked out from the molar mass of the structure shown.

How the values were obtained:
[1] = system: Aster Leafhopper; experiment: Mite/insect screen, Aster Leafhopper (ALH); format: in vivo; conditions: Macrosteles fascifrons, 24 hr, mean of single replicate tests
Protocol: (§1) The Formula 2 compounds were tested for miticidal and insecticidal activity in the following mite/insect screen. Each test compound was formulated by dissolving the compound in an acetone-alcohol (1:1) mixture containing 23 g of TOXIMUL R (sulfonate/nonionic emulsifier blend) and 13 g of TOXIMUL S (sulfonate/nonionic emulsifier blend) per liter. These mixtures were then diluted with water to give the indicated concentrations.
(§2) Two-spotted spider mites and cotton aphids were introduced on squash cotyledons and allowed to establish on both leaf surfaces. The leaves were then sprayed with 5 ml of test solutions using a DeVilbiss atomizing sprayer at 10 psi. Both surfaces of the leaves were covered until run off and then allowed to dry for one hour. After standard exposure periods percent mortality was evaluated. Additional insects were evaluated using similar formulations and evaluation procedures. The results are reported in Table V. The following abbreviations are used: […]

[2] = system: Beet Armyworm; experiment: Mite/insect screen, Beet Armyworm (BAW); format: in vivo, Spodoptera exiqua; conditions: Spodoptera exigua, 144 h, 6 day, mean of single replicate tests
Protocol: as §1, §2

[3] = system: Cotton Aphid; experiment: Mite/insect screen, Cotton Aphid (CA); format: in vivo, Aphis gossypii Glover; conditions: Aphis gossypii, 4-5 day, mean of single replicate tests
Protocol: as §1, §2

[4] = system: German Cockroach; experiment: Mite/insect screen, German Cockroach (GECR); format: in vivo; conditions: Blattella germanica, mean of single replicate tests
Protocol: as §1, §2

[5] = system: Rootknqt Nemat.ode; experiment: Mite/insect screen, Rootknot Nematode (NEM); format: in vivo, Meliiodyne spp.; conditions: 264 h, 11 day, mean of single replicate tests
Protocol: as §1, §2

[6] = system: Southern Corn Rootworm; experiment: Mite/insect screen, Southern Corn Rootworm (SCRW); format: in vivo, Diabrotica undecimpunctata howardi; conditions: 264 h, 11 day, mean of single replicate tests
Protocol: as §1, §2

[7] = system: Tobacco Budworm; experiment: Mite/insect screen, Tobacco Budworm (TBW); format: in vivo; conditions: Heliothis virescens, 144 h, 6 day, mean of single replicate tests
Protocol: as §1, §2

[8] = system: Two-spotted Spider Mite; experiment: Mite/insect screen, Two-spotted Spider Mite (TSSM); format: in vivo; conditions: Tetranychus urticae, 4-5 day, mean of single replicate tests
Protocol: as §1, §2

[9] = system: neonate tobacco budworm; experiment: LD50 against neonate tobacco budworm; format: in vivo; conditions: Heliothis virescens; neonate larvae; mean of two tests; mortality evaluated at 24 and 48 hours
Protocol: The Formula 2 compounds were evaluated in the following assay to determine the LD50 against neonate tobacco budworm (Heliothis virescens). A petri dish (100 mm ×20 mm) is inverted and the lid lined with a #1 qualitative filter paper. Ten neonate larvae are placed in each dish and a 1 ml test solution is pipetted onto the insects. The petri dish bottom is then placed on the lid to contain the larvae. At 1 hr. after treatment, a small piece of Heliothis diet (modified slurry, Southland Products, Lake Village, Ariz.) is added to each dish. The mortality is evaluated at 24 and 48 hours. The tests were run in triplicate.

[10] = system: Blowfly Larvae; experiment: Activity against blowfly larvae (in vitro); format: in vivo
Text: (§3) Tables VII and VIII summarize in vitro studies using compounds of the present invention against members of the insect order Diptera.

[11] = system: Adult Stablefly; experiment: Activity against adult stablefly (in vitro); format: in vivo; conditions: Stomoxys calcitrans
Text: as §3

| Structure (SMILES) | inhibition at 50 ppm [1] | inhibition at 400 ppm [1] | inhibition at 50 ppm [2] | inhibition at 400 ppm [2] | inhibition at 50 ppm [3] | inhibition at 400 ppm [3] | inhibition at 50 ppm ([4]; 168 h, 7 day) | inhibition at 400 ppm ([4]; 168 h, 7 day) | inhibition at 50 ppm ([4]; 504 h, 21 day) | inhibition at 400 ppm ([4]; 504 h, 21 day) | inhibition at 400 ppm [5] | inhibition at 400 ppm [6] | inhibition at 21 ppm [7] | inhibition at 64 ppm [7] | inhibition at 50 ppm [8] | inhibition at 400 ppm [8] | LC50 [9] | % mortality ([10]; 5 ppm, 24 hrs.) | % mortality ([10]; 5 ppm, 48 hrs.) | % mortality ([10]; 10 ppm, 24 hrs.) | further results |
| --- | --- | --- | --- | --- | --- | --- | --- | --- | --- | --- | --- | --- | --- | --- | --- | --- | --- | --- | --- | --- | --- |
| CC[C@H]1CCC[C@H](O[C@H]2CC[C@H](N(C)C)[C@@H](C)O2)[C@@H](C)C(=O)C2=C[C@@H]3[C@@H](C=C(C)[C@@H]4C[C@@H](O[C@@H]5O[C@@H](C)[C@H](OC)[C@@H](OC)[C@H]5O)C[C@@H]34)[C@@H]2CC(=O)O1 [A83543Q] | 100% | 100% | 100% | 100% | 0% | 0% | 0% | 0% | 0% | 0% | 0% | 0% | 100% | 100% | 70% | 100% | 0.39 µg/mL (≈ 0.533 µM) | 90% | 90% | 100% | % mortality ([10]; 10 ppm, 48 hrs.): 100%; mortality at 5 ppm ([11]; 24 h): 50%; mortality at 10 ppm ([11]; 24 h): 90%; mortality at 5 ppm ([11]; 48 h): 90%; mortality at 10 ppm ([11]; 48 h): 100% |
| CC[C@H]1CCC[C@H](O[C@H]2CC[C@H](NC)[C@@H](C)O2)[C@@H](C)C(=O)C2=C[C@@H]3[C@@H](C=C[C@@H]4C[C@@H](O[C@@H]5O[C@@H](C)[C@H](OC)[C@@H](OC)[C@H]5O)C[C@@H]34)[C@@H]2CC(=O)O1 [A83543R] | 0% | 0% | 0% | 0% | 0% | 0% | 0% | 0% | 20% | 0% | 0% | 0% | 63% | 88% | 85% | 90% | 14.5 µg/mL (≈ 20.6 µM) | 90% | 100% | 100% | % mortality ([10]; 10 ppm, 48 hrs.): 100%; mortality at 5 ppm ([11]; 24 h): 70%; mortality at 10 ppm ([11]; 24 h): 90%; mortality at 5 ppm ([11]; 48 h): 100%; mortality at 10 ppm ([11]; 48 h): 100% |
| CO[C@@H]1[C@@H](OC)[C@@H](O)[C@H](O[C@H]2C[C@H]3[C@@H]4C=C5C(=O)[C@H](C)[C@@H](O[C@H]6CC[C@H](N(C)C)[C@@H](C)O6)CCC[C@H](C)OC(=O)C[C@H]5[C@@H]4C=C[C@@H]3C2)O[C@H]1C [A83543S] | 60% | 100% | 100% | 100% | 0% | 0% | 0% | 0% | 0% | 20% | 0% | 0% | 26% | 53% | 0% | 0% | 53 µg/mL (≈ 75.3 µM) | 0% | 0% | 60% | % mortality ([10]; 10 ppm, 48 hrs.): 60%; mortality at 50 ppm ([11]; 24 h): 100%; mortality at 100 ppm ([11]; 24 h): 90%; mortality at 50 ppm ([11]; 48 h): 100%; mortality at 100 ppm ([11]; 48 h): 100% |
| CC[C@H]1CCC[C@H](O[C@H]2CC[C@H](N(C)C)[C@@H](C)O2)[C@@H](C)C(=O)C2=C[C@@H]3[C@@H](C=C[C@@H]4C[C@@H](O[C@@H]5O[C@@H](C)[C@H](OC)[C@@H](O)[C@H]5O)C[C@@H]34)[C@@H]2CC(=O)O1 [A83543T] | 20% | 100% | 0% | 0% | 0% | 0% | 0% | 0% | 0% | 0% | 0% | 0% | 0% | 0% | 0% | 0% | > 64 µg/mL | – | – | – | % mortality ([10]; 50 ppm, 24 hrs.): 0%; % mortality ([10]; 50 ppm, 48 hrs.): 0%; % mortality ([10]; 100 ppm, 24 hrs.): 0%; % mortality ([10]; 100 ppm, 48 hrs.): 0%; mortality at 50 ppm ([11]; 24 h): 60%; mortality at 100 ppm ([11]; 24 h): 80%; mortality at 50 ppm ([11]; 48 h): 70%; mortality at 100 ppm ([11]; 48 h): 90% |
